Test results: patent publication US9006444B2, “Phenyl carboxamide-containing spleen tyrosine kinase (SYK) inhibitors” (Merck Sharp & Dohme Corp., priority 2011, dated 2015)
pIC50: −log10 of the molar value. Where two headings read alike, the source gives them in different places.

Legend:
[1] = target: T1, recombinant human GST-SYK (Homo sapiens, UniProt P43405); assay: Homogeneous Time-Resolved Fluorescence (HTRF) Assay for the Recombinant Human Syk Enzyme; assay type: biochemical; details: GST-hSYK 5 pM, ATP 25 μM, 10-dose titration
T1 construct: purchased Carna Biosciences 08-176
Procedure: Homogeneous Time-Resolved Fluorescence (HTRF) Assay for the Recombinant Human Syk Enzyme
A recombinant GST-hSYK fusion protein was used to measure potency of compounds to inhibit human Syk activity. […] Final volume of the reaction was 10 μL. Phosphorylation of the peptide was allowed to proceed for 45′ at room temperature. To quench the reaction and detect the phosphorylated product, 2 nM of a Europium-anti-phosphotyrosine antibody (Perkin Elmer #AD0161) and 70 nM SA-APC (Perkin-Elmer #CR130-100) were added together in 15 mM Tris pH 7.5, 40 mM EDTA, 0.01% tween 20. Final volume of the quenching solution was 10 μl. The resulting HTRF signal was measured after 30 minutes on an EnVision (Perkin-Elmer) reader using a time-resolved fluorescence protocol.

[2] = test system: PGD2; details: intranasal, phase I/II study, allergic rhinitis; cited from earlier work
[3] = phase II clinical trial, allergic rhinitis; cited from earlier work

| SMILES | pIC50 ([1]; read-out: rhSYK Activity) | other results |
| --- | --- | --- |
| NC(=O)c1ccc(N[C@@H]2CCCC[C@@H]2N)cc1Nc1cccc(-n2cccn2)n1 (relative stereo) [Example 1.3, rel-4-{[(1R,2S)-2-aminocyclohexyl]amino}-2-{[6-(1H-pyrazol-1-yl)pyridin-2-yl]amino}benzamide] | 7.82 to 8.82 | – |
| Cc1nc(Nc2cc(N[C@@H]3CCCC[C@@H]3N)ccc2C(N)=O)ccc1F (relative stereo) [Example 1.4, rel-4-{[(1R,2S)-2-aminocyclohexyl]amino}-2-[(5-fluoro-6-methylpyridin-2-yl)amino]benzamide] | 7.30 to 7.82 | pIC50 ([1]; read-out: IC50): 7.64 |
| NC(=O)c1ccc(N[C@@H]2CCCC[C@@H]2N)cc1Nc1cccc(N2CCOCC2)n1 (relative stereo) [Example 1.5, rel-4-{[(1R,2S)-2-aminocyclohexyl]amino}-2-[(6-morpholin-4-ylpyridin-2-yl)amino]benzamide] | 7.30 to 7.82 | – |
| NC(=O)c1ccc(N[C@@H]2CCCC[C@@H]2N)cc1Nc1cccc(-c2ccccc2)n1 (relative stereo) [Example 1.7, rel-4-{[(1R,2S)-2-aminocyclohexyl]amino}-2-[(6-phenylpyridin-2-yl)amino]benzamide] | > 8.82 | – |
| Cn1cc(-c2cccc(Nc3cc(N[C@@H]4CCCC[C@@H]4N)ccc3C(N)=O)n2)cn1 (relative stereo) [Example 1.10, rel-4-{[(1R,2S)-2-aminocyclohexyl]amino}-2-{[6-(1-methyl-1H-pyrazol-4-yl)pyridin-2-yl]amino}benzamide] | 7.82 to 8.82 | pIC50 ([1]; read-out: IC50): 8.70 |
| NC(=O)c1ccc(N[C@@H]2CCCC[C@@H]2N)cc1Nc1cccc(-c2cccc(F)c2)n1 (relative stereo) [Example 1.11, rel-4-{[(1R,2S)-2-aminocyclohexyl]amino}-2-{[6-(3-fluorophenyl)pyridin-2-yl]amino}benzamide] | > 8.82 | – |
| NC(=O)c1ccc(N[C@@H]2CCCC[C@@H]2N)cc1Nc1cccc(-c2ccc(F)cc2)n1 (relative stereo) [Example 1.14, rel-4-{[(1R,2S)-2-aminocyclohexyl]amino}-2-{[6-(4-fluorophenyl)pyridin-2-yl]amino}benzamide] | 7.82 to 8.82 | – |
| NC(=O)c1ccc(N[C@@H]2CCCC[C@@H]2N)cc1Nc1cccc(-n2cccc2)n1 (relative stereo) [Example 1.17, rel-4-{[(1R,2S)-2-aminocyclohexyl]amino}-2-{[6-(1H-pyrrol-1-yl)pyridin-2-yl]amino}benzamide] | > 8.82 | – |
| Cc1cccc(Nc2cc(N[C@@H]3CCCC[C@@H]3N)ccc2C(N)=O)n1 (relative stereo) [Example 2, rel-4-{[(1R,2S)-2-aminocyclohexyl]amino}-2-[(6-methylpyridin-2-yl)amino]benzamide] | 7.30 to 7.82 | – |
| Oc1cccc(Nc2ncc(F)c(Nc3cccc(O)c3)n2)c1 [Example R112] | – | change in PGD2 [2]: statistically significant decrease; clinical safety [2]: safe across a range of indicators; efficacy versus placebo [3]: lack of efficacy versus placebo |

More lines, main results first:

| pIC50 ([1]; read-out: rhSYK Activity) | SMILES | other results |
| --- | --- | --- |
| 7.82 to 8.82 | COc1cccc(Nc2cc(N[C@@H]3CCCC[C@@H]3N)ccc2C(N)=O)n1 (relative stereo) [Example 1.2, rel-4-{[(1R,2S)-2-aminocyclohexyl]amino}-2-[(6-methoxypyridin-2-yl)amino]benzamide] | – |
| 7.82 to 8.82 | CCOc1cccc(Nc2cc(N[C@@H]3CCCC[C@@H]3N)ccc2C(N)=O)n1 (relative stereo) [Example 1.6, rel-4-{[(1R,2S)-2-aminocyclohexyl]amino}-2-[(6-ethoxypyridin-2-yl)amino]benzamide] | – |
| > 8.82 | NC(=O)c1ccc(N[C@@H]2CCCC[C@@H]2N)cc1Nc1cccc(-c2ccncc2)n1 (relative stereo) [Example 1.8, rel-4-{[(1R,2S)-2-aminocyclohexyl]amino}-2-(2,4′-bipyridin-6-ylamino)benzamide] | – |
| > 8.82 | COc1cccc(-c2cccc(Nc3cc(N[C@@H]4CCCC[C@@H]4N)ccc3C(N)=O)n2)c1 (relative stereo) [Example 1.9, rel-4-{[(1R,2S)-2-aminocyclohexyl]amino}-2-{[6-(3-methoxyphenyl)pyridin-2-yl]amino}benzamide] | pIC50 ([1]; read-out: IC50): 8.89 |
| > 8.82 | COc1ccccc1-c1cccc(Nc2cc(N[C@@H]3CCCC[C@@H]3N)ccc2C(N)=O)n1 (relative stereo) [Example 1.12, rel-4-{[(1R,2S)-2-aminocyclohexyl]amino}-2-{[6-(2-methoxyphenyl)pyridin-2-yl]amino}benzamide] | – |
| > 8.82 | COc1ccc(-c2cccc(Nc3cc(N[C@@H]4CCCC[C@@H]4N)ccc3C(N)=O)n2)cc1 (relative stereo) [Example 1.13, rel-4-{[(1R,2S)-2-aminocyclohexyl]amino}-2-{[6-(4-methoxyphenyl)pyridin-2-yl]amino}benzamide] | – |
| 7.82 to 8.82 | NC(=O)c1ccc(N[C@@H]2CCCC[C@@H]2N)cc1Nc1ccc2ccccc2n1 (relative stereo) [Example 1.15, rel-4-{[(1R,2S)-2-aminocyclohexyl]amino}-2-(quinolin-2-ylamino)benzamide] | – |
| 7.82 to 8.82 | NC(=O)c1ccc(N[C@@H]2CCCC[C@@H]2N)cc1Nc1cccc(-c2ccc(F)c(F)c2)n1 (relative stereo) [Example 1.16, rel-4-{[(1R,2S)-2-aminocyclohexyl]amino}-2-{[6-(3,4-difluorophenyl)pyridin-2-yl]amino}benzamide] | pIC50 ([1]; read-out: IC50): 8.80 |
